# Test system: Hep G2 (human hepatocellular carcinoma)
# Experiment: Non-lethal concentration range for chemical exposure of Hep G2 cells
# Assay type: cell-based
# Experimental: The hepatocyte cell line, Hep G2 (human hepatocellular carcinoma, obtained from the American Type Culture Collection, Rockville Md., ATCC#HB-8065), was used to evaluate the effects of various chemicals on expression of a set of genes known to be involved in cellular toxicological responses. The cells were routinely maintained in T75 flasks in Eagle's MEM medium (with non-essential amino acids, sodium pyruvate, and Earle's salts) and 10% fetal bovine serum at 37° C. in a humidified atmosphere of 5% CO2. The chemicals used in exposure experiments included cadmium chloride (CdCl2) and methyl methane sulfonate (MMS). CdCl2 is a strong inducer of metallothionein, a metal-binding protein, and is known to be carcinogenic and capable of interfering with DNA repair. MMS is an alkylating agent that induces DNA damage. Dilutions of these compounds were prepared from concentrated stocks obtained from Aldrich Chemical Company (Milwaukee, Wis.). Water was used as the solvent control in dosing studies. […] These concentration ranges were empirically determined to not be lethal to cells for the duration of the exposure period. […] Cell number was quantitated using a dye incorporation assay, CyQUANT from Molecular Probes (Eugene, Oreg.).
Compound,"lethality to cells for the duration of the exposure period (final concentrations 10^-4M to 10^-6M CdCl2, 3 hours exposure)","lethality to cells for the duration of the exposure period (final concentrations 0.5 mM to 2 mM MMS, 3 hours exposure)"
"[Cl][Cd][Cl] [CdCl2, cadmium chloride]",not be lethal,
"COS(C)(=O)=O [MMS, methyl methane sulfonate]",,not be lethal

# Reference: patent publication US6618679B2, “Methods for analysis of gene expression” (priority 2000, dated 2003)
